Data: paper PMC8617944, “Preclinical Pharmacokinetics and Acute Toxicity in Rats of 5-{[(2E)-3-Bromo-3-carboxyprop-2-enoyl]amino}-2-hydroxybenzoic Acid: A Novel 5-Aminosalicylic Acid Derivative with Potent Anti-Inflammatory Activity” (Molecules, 2021)
Entries after “also recorded” stand apart in the source; their conditions may differ. Where two headings read alike, the source gives them in different places.

How the values were obtained:
[1] = Pharmacokinetic profiles after p.o., i.p. and i.v. administration; assay type: in vivo, Wistar rats; details: for absorption half-life: read-out: t1/2a, absorption half-life (converted); for Cmax: read-out: Cmax, maximum plasma concentration; for k el: read-out: Ke, elimination rate constant (converted); for MRT: read-out: MRT, mean residence time; for Tmax: read-out: tmax, time to maximum plasma concentration (converted); for Ka, absorption rate constant: non-compartmental
Protocol: On the same day as C1 administration, the rats (three groups, n = 6) were previously cannulated for compound administration by the p.o., i.p., and i.v. routes. A 24 G catheter was placed in the right lateral tail vein for blood collection. A first group of rats received a single dose of 50 mg/kg applied p.o. with a 20 G gavage needle. A dose of 75 mg/kg of C1 was injected i.p. into the rats in the second group. A single dose of 50 mg/kg was given i.v. to the third group by means of another catheter previously placed in the left lateral tail vein. The doses used in this study were selected based on previous pharmacokinetic studies reported in rats for 5-ASA [60] or for derivatives of this compound [61]. Animals were provided with the standard diet 4 h after dosing. […] The volume of blood removed was supplemented with an equal volume of 0.9% sodium chloride solution. The blood samples were centrifuged at 8000 rpm for 15 min to harvest 100 μL of plasma.
Plasma samples were processed immediately. Briefly, 450 µL of acetonitrile was added to 100 µL of plasma and vortexed for 5 min. Subsequently, 450 µL of methanol was added, and the sample was vortexed again, followed by centrifugation to precipitate the proteins. Finally, 10 µL of the supernatant were used for evaluation of the plasma concentration of C1 by RP-HPLC with the UV detection method, previously validated for the pharmacokinetic and complementary assays herein performed.
The plasma concentration–time data were plotted. […] Pharmacokinetic parameters of C1 were calculated on Kinetica 5.0 software (Adept Scientific Ltd), including the maximum plasma concentration (Cmax), time to maximum plasma concentration (tmax), elimination half-life (t1/2e), the area under the plasma concentration-time curve from time zero to the last measurable concentration (AUC0-t), the area under the plasma concentration-time curve from time zero to infinity (AUCtot), mean residence time (MRT), clearance (CL), and apparent volume of distribution (Vd).

[2] = test system: 12-O-tetradecanoylphorbol acetate (TPA)-induced mouse ear edema; design: method as in ref 32, 33 = [32]; doi:10.1016/j.arabjc.2016.12.026; 32. Cabrera Pérez L.C. Gutiérrez Sánchez M. Mendieta Wejebe J.E. Hernández Rodríguez M. Fragoso Vázquez M.J. Salazar J.R. Correa Basurto J. Padilla Martínez I.I. Rosales Hernández M.C. Novel 5-aminosa || [33]; 33. Correa Basurto J. Rosales Hernández M.C. Mendieta Wejebe J.E. Trujillo Ferrara J.G. Padilla Martínez I.I. Ramírez Durán L.A. Alemán González Duhart D. Síntesis de un derivado del ácido 5-aminosali; details: cited from earlier work
[3] = design: method as in ref 32 = [32]; doi:10.1016/j.arabjc.2016.12.026; 32. Cabrera Pérez L.C. Gutiérrez Sánchez M. Mendieta Wejebe J.E. Hernández Rodríguez M. Fragoso Vázquez M.J. Salazar J.R. Correa Basurto J. Padilla Martínez I.I. Rosales Hernández M.C. Novel 5-aminosa; details: Osiris Property Server Explorer; cited from earlier work
[4] = Wistar, rat, plasma, ip, 75 mg/kg, i.p. 75 mg/kg, n = 6
[5] = Wistar, rat, plasma, ip, 75 mg/kg, plasma, i.p. 75 mg/kg, n = 6, read-out: Average Concentration
[6] = Wistar, rat, plasma, ip, 75 mg/kg, plasma, i.p. 75 mg/kg, individual rats, read-out: Concentration (µg/mL), Rat 1-6
[7] = Wistar, rat, plasma, ip, i.p. 75 mg/kg, rats
[8] = Wistar, rat, plasma, iv, 50 mg/kg, i.v. 50 mg/kg, n = 6
[9] = Wistar, rat, plasma, iv, 50 mg/kg, plasma, i.v. 50 mg/kg, n = 6, read-out: Average Concentration
[10] = Wistar, rat, plasma, iv, 50 mg/kg, plasma, i.v. 50 mg/kg, individual rats, read-out: Concentration (µg/mL), Rat 1-6
[11] = Wistar, rat, plasma, iv, i.v. 50 mg/kg, rats
[12] = Wistar, rat, plasma, po, 50 mg/kg, i.g. (p.o.) 50 mg/kg, n = 6
[13] = Wistar, rat, plasma, po, 50 mg/kg, plasma, i.g. (p.o.) 50 mg/kg, individual rats, read-out: Concentration (µg/mL), Rat 1-6
[14] = Wistar, rat, plasma, po, 50 mg/kg, plasma, i.g. (p.o.) 50 mg/kg, n = 6, read-out: Average Concentration
[15] = Wistar, rat, plasma, po, p.o. 50 mg/kg, rats
[16] = two-compartment model, Kinetica 5.0

Compound O=C(/C=C(/Br)C(=O)O)Nc1ccc(O)c(C(=O)O)c1 [Compound C1, 5-{[(2E)-3-bromo-3-carboxyprop-2-enoyl]amino}-2-hydroxybenzoic acid] has a concentration at 5 min [1, 4] of 15900 ng/mL, a concentration at 10 min [1, 4] of 17600 ng/mL and a concentration at 30 min [1, 4] of 19900 ng/mL. The concentration at 45 min [1, 4] was 17700 ng/mL, the concentration at 60 min [1, 4] was 15200 ng/mL and the concentration at 90 min [1, 4] was 11200 ng/mL. The concentration at 120 min [1, 4] was 9000 ng/mL, the concentration at 180 min [1, 4] was 5200 ng/mL and the concentration at 240 min [1, 4] was 2900 ng/mL. For the same compound, the absorption half-life ([1]; Wistar, rat, plasma, ip, 75 mg/kg, i.p. 75 mg/kg, rats) was 1.3 ± 0.5 h, the half-life ([1]; Wistar, rat, plasma, ip, 75 mg/kg, i.p. 75 mg/kg, rats, read-out: t1/2e, elimination half-life (converted)) was 1.4 ± 0.2 h and the concentration at 20 min [1, 5] was 19.8 µg/mL. The concentration at 300 min [1, 6] was 0 µg/mL, the concentration at 300 min [1, 5] was 0 µg/mL and the concentration at 360 min [1, 6] was 0 µg/mL. The concentration at 360 min [1, 5] was 0 µg/mL, the concentration at 540 min [1, 6] was 0 µg/mL and the concentration at 540 min [1, 5] was 0 µg/mL. The concentration at 720 min [1, 6] was 0 µg/mL, the concentration at 720 min [1, 5] was 0 µg/mL and the Cmax [1, 7] was 22000 ± 1000 ng/mL. For the same compound, the k el [1, 7] was 0.000139 s⁻¹, the MRT [1, 7] was 3.1 ± 0.9 h and the Tmax [1, 7] was 0.55 h. For the same compound, the concentration at 5 min [1, 8] was 10500 ng/mL, the concentration at 10 min [1, 8] was 7800 ng/mL and the concentration at 30 min [1, 8] was 5300 ng/mL. It also gave a concentration at 45 min [1, 8] of 4200 ng/mL, a concentration at 60 min [1, 8] of 4000 ng/mL and a concentration at 90 min [1, 8] of 3400 ng/mL. For the same compound, the concentration at 120 min [1, 8] was 2200 ng/mL, the concentration at 180 min [1, 8] was 1500 ng/mL and the concentration at 240 min [1, 8] was 1400 ng/mL. For the same compound, the half-life ([1]; Wistar, rat, plasma, iv, 50 mg/kg, i.v. 50 mg/kg, rats, read-out: t1/2e, elimination half-life (converted)) was about 0.9 h, the concentration at 20 min [1, 9] was 6 µg/mL and the concentration at 300 min [1, 9] was 1.2 µg/mL. It also gave a concentration at 360 min [1, 9] of 0.756 µg/mL, a concentration at 540 min [1, 10] of 0 µg/mL and a concentration at 540 min [1, 9] of 0 µg/mL. It also gave a concentration at 720 min [1, 10] of 0 µg/mL, a concentration at 720 min [1, 9] of 0 µg/mL and a clearance ([1]; Wistar, rat, plasma, iv, i.v. 50 mg/kg, rats, read-out: CL, clearance) of 24 ± 5 mL/min. For the same compound, the C0 ([1]; Wistar, rat, plasma, iv, i.v. 50 mg/kg, rats, read-out: Cp^0, initial plasma concentration) was 11000 ± 1900 ng/mL, the k el [1, 11] was 0.000222 s⁻¹ and the MRT [1, 11] was 1.7 ± 0.4 h. The Vd ([1]; Wistar, rat, plasma, iv, i.v. 50 mg/kg, rats, read-out: Vd, volume of distribution) was 5.2 ± 0.9 L/kg, the bioavailability ([1]; Wistar, rat, plasma, oral, 50 mg/kg, p.o. 50 mg/kg vs i.v. 50 mg/kg, rats, read-out: absolute oral bioavailability) was about 77% and the concentration at 5 min [1, 12] was 2200 ng/mL. The concentration at 10 min [1, 12] was 2200 ng/mL, the concentration at 30 min [1, 12] was 2500 ng/mL and the concentration at 45 min [1, 12] was 2100 ng/mL. It also gave a concentration at 60 min [1, 12] of 2100 ng/mL, a concentration at 90 min [1, 12] of 1800 ng/mL and a concentration at 120 min [1, 12] of 1500 ng/mL. For the same compound, the concentration at 180 min [1, 12] was 1000 ng/mL, the concentration at 240 min [1, 12] was 665 ng/mL and the absorption half-life ([1]; Wistar, rat, plasma, po, 50 mg/kg, p.o. 50 mg/kg, rats) was 1.4 ± 0.3 h. The half-life ([1]; Wistar, rat, plasma, po, 50 mg/kg, p.o. 50 mg/kg, rats, read-out: t1/2e, elimination half-life (converted)) was over 2.5 h, the concentration at 20 min [1, 13] was 2.2 µg/mL and the concentration at 20 min [1, 14] was 2.6 µg/mL. For the same compound, the concentration at 300 min [1, 14] was 0.5 µg/mL, the concentration at 360 min [1, 14] was 0.34 µg/mL and the concentration at 540 min [1, 14] was 0.136 µg/mL. It also gave a concentration at 600 min [1, 13] of 0 µg/mL, a concentration at 600 min [1, 14] of 0 µg/mL and a concentration at 720 min [1, 13] of 0 µg/mL. For the same compound, the concentration at 720 min [1, 14] was 0 µg/mL, the Cmax [1, 15] was 2800 ± 100 ng/mL and the k el [1, 15] was 0.000111 s⁻¹. The MRT [1, 15] was 1.7 ± 0.2 h, the Tmax [1, 15] was 0.55 h and the half-life ([1]; Wistar, rat, plasma, two-compartment model, Kinetica 5.0, read-out: elimination half-life α (t1/2α)) was 0.267 h. For the same compound, the half-life ([1]; Wistar, rat, plasma, two-compartment model, Kinetica 5.0, read-out: elimination half-life β (t1/2β) (converted)) was 3 h, the “AUCtot, area under the plasma concentration-time curve from time zero to infinity” value (from here on “AUCtot, area”) ([1]; i.p. 75 mg/kg, rats) was 2780 ± 69 µg·min/mL and the “Ka, absorption rate constant” value ([1]; i.p. 75 mg/kg, rats) was 1.4 ± 0.2 h⁻¹. For the same compound, the “AUCtot, area” value ([1]; i.v. 50 mg/kg, rats) was 806 ± 72 µg·min/mL, the “AUCtot, area” value ([1]; p.o. 50 mg/kg, rats) was 618 ± 63 µg·min/mL and the “Ka, absorption rate constant” value ([1]; p.o. 50 mg/kg, rats) was 0.9 ± 0.1 h⁻¹. The “t1/2e, elimination half-life” value ([1]; p.o. 50 mg/kg, rats, 50 mg/kg) was 2.5 ± 0.6 h, the K12 [1, 16] was 0.018 min⁻¹ and the K21 [1, 16] was 0.019 min⁻¹. The α [1, 16] was 0.042 min⁻¹, the anti-inflammatory activity [2] was “anti-inflammatory agent in mice; also recorded: comparable to that of indomethacin; also recorded: exhibited anti-inflammatory activity” and the predicted toxicity index [3] was “low toxicity index”.
